Data taken from patent US12233140B2, “Hyperbranched polyglycerol-coated particles and methods of making and using thereof” (priority 2014, dated 2025).

What was measured:
[1] = test system: uterine papillary serous carcinoma (UPSC) cells; test: In vitro cytotoxicity on UPSC cells, 72 h (Cell Titer Blue); assay type: cell-based; conditions: 3 days
Description: UPSC cells (180 μL) were plated in each well of a 96 well plate at a density of 2,000/well and left in a 37° C. incubator overnight. […] The cells were incubated for 72 h and cell viability was quantified with Cell Titer Blue.

[2] = Retention profile of EB in peritoneal cavity after IP injection (HPLC); conditions: 6 hr after a single IP dose, EB 2.5 mg/kg
Description: C57BL/6 mice (5-6 weeks old, Charles River Laboratories) were divided into three groups with 9 mice per group and one group with 3 mice. The group with 3 mice was used as a vehicle control. […] At each time point (6 hr, 1 d and 3 d), 3 mice from each group and one mouse from the 3-animal vehicle control group were euthanized and the peritoneal cavities washed with 5 mL acetonitrile for 3 times. The acetonitrile samples were centrifuged and the supernatant was collected and processed for HPLC analysis. EB concentration was determined with HPLC with C18 column with methanol/water (7:3) with UV detector set at 240 nm absorbance.

[3] = test system: i.p. USC tumors (USC-ARK-2 xenografts); test: Survival and body weight of nude mice bearing intraperitoneal USC tumors, IP treatment; assay type: in vivo
Description: Forty BALB/c Nude mice (5-6 weeks old, Charles River Laboratories) were intraperitoneally injected with 1×10^6 UPSC cells. After 1 week, drug treatments were started with PBS control, blank PLA-HPGALD control and 3 EB formulations. […] Treatments were administrated intraperitoneally with a dose of EB (0.5 mg/kg) every week for 5 weeks. The body weights of the mice were measured twice a week. Animals were euthanized when the body weight loss exceeded 20%, or when other signals of sickness, such as breathing problems, failure to eat and drink, lethargy or abnormal posture, were observed.
BALB/c Nude mice (5-6 weeks old, Charles River Laboratories) were intraperitoneally injected with 1×10^6 USC cells. After 1 week, drug treatments were started with 8 animals in each group. […] In this experiment, treatments were administrated intraperitoneally with a 2.5 mg/kg dose of EB every week for 3 weeks. In another experiment, five groups were compared as described in Example 11.
The body weights of the mice were measured as described in Example 11.

[4] = Retention of IR-780 loaded NPs in the peritoneal cavity after IP administration (live imaging); conditions: free dye control
Description: Six BALB/c nude mice were divided into 2 groups, 3 mice per group. […] Each mouse received 100 μL NP suspensions. The fluorescence was monitored with live imaging (Xenogen Corp., Alameda, CA) over time. The quantification of fluorescence retained in intraperitoneal cavity over time was determined.
Each mouse received 100 μL of the nanoparticle suspension at 10 mg/mL. The fluorescence was monitored with live imaging (Xenogen, Alameda, CA) over time.

Compound	in vitro cytotoxicity against UPSC cells [1]	EB retained in the peritoneal cavity [2]	animals surviving to 110 days ([3]; EB 0.5 mg/kg)	body weight ([3]; EB 2.5 mg/kg)	death due to toxicity ([3]; EB 2.5 mg/kg)	survival compared with PBS ([3]; EB 2.5 mg/kg IP weekly for 3 weeks)	toxicity (weight loss, diarrhea, bowel dilation) ([3]; FIG. 18B)	survival compared with PBS ([3]; five-group experiment, EB 0.5 mg/kg IP weekly for 5 weeks)	time to complete clearance from the IP cavity [4]
C/C(=C\c1csc(C)n1)[C@@H]1C[C@@H]2O[C@]2(C)CCC[C@H](C)[C@H](O)[C@@H](C)C(=O)C(C)(C)[C@@H](O)CC(=O)O1 [free EB, epothilone B]	highest toxicity	No EB was detected	approximately 10%	weight loss	early death due to EB toxicity	only mice treated with the lower dosage showed significance	significant toxicity	showed significance	–
CCCN1C(=CC=C2CCCC(C=CC3=[N+](CCC)c4ccccc4C3(C)C)=C2Cl)C(C)(C)c2ccccc21.[I-] [Free dye, IR-780 iodide]	–	–	–	–	–	–	–	–	less than 4 hours
